Assay results reported in US20210163453A1, “DERIVATIVES OF PAPAVERINE THAT ARE EFFECTIVE HYPOXIC TUMOR RADIOSENSITIZERS” (Ohio State Innovation Foundation, priority 2018, published 2021).

System: mitochondrial complex 1
Experiment: Seahorse OCR inhibition of PPV derivatives, normalized to PPV
Type: cell-based
Description: FIGS. 7A-7D show OCR and cellular toxicity data. […]. Bars represent mean OCR and PDE10 inhibitory activities from at least 5 (OCR) or 3 (PDE) replicates. All experiments were repeated at least twice. […] Values are mean+−SEM.
Seahorse analysis of the OCR. Oxygen consumption rate (OCR) was measured using Seahorse XF96 Flux Analyzer (Agilent Technologies). The cells were seeded to attach overnight, wells were washed with pre-warmed XF Calibrant (Agilent Technologies) and the replaced with unbuffered Assay Medium (pH 7.4, 5 mM glucose, 1 mM L-glutamine). The plates were incubated at 37° C. in a CO2-free incubator for 2 hours prior to assay. For succinate rescue assay, cells were permeabilized using XF Plasma Membrane Permeabilizer Reagent (XF PMP, Agilent Technologies) according to the manufacturer's instructions. The OCR rate was measured in 1× Mitochondrial Assay Solution (MAS) (70 mM sucrose, 220 mM mannitol, 10 mM KH2PO4, 5 mM MgCl2, 2 mM Hepes, 0.6% (w/v) fatty acid-free BSA and 1 mM EGTA; pH 7.4). After baseline oxygenation was established, 1 μM rotenone or 10 μM PPV was injected at time A, followed by 5 mM succinate at time B. Error bars represent standard deviation. For the washout experiment, EO771 cells were seeded overnight, then treated with 10 μM PPV or 1 μM rotenone 3 hours prior to OCR measurement. Media was replaced 1 and 2 hours before measurement and OCR reported.
Because PPV's effect on mitochondrial function is independent of cAMP levels it was reasoned that there are two activities in PPV, one inhibiting complex 1 and one inhibiting PDE10A that may reside in different parts of the molecule. The structure activity relationship of PPV relative to two assays was assessed: inhibition of cellular OCR by Seahorse, and inhibition of PDE10A by purified enzyme activity in multiwell plate (PDE10A activity assay kit, BPS Bioscience). Because PPV can compete with rotenone as complex 1 inhibitors, it was reasoned that they may be binding the same site and therefore the structures would be similar relative to the mitochondrial binding target. […] Because the top was a planar structure similar to that of rotenone, and they compete with each other for the same binding pocket on complex 1 (FIG. 10) the lower portion of the molecule and how it may resemble rotenone were investigated in more detail. It was established that flexible linkage was preferred for mitochondrial activity and bulky adducts to the lower benzene ring may block it (FIG. 7C). […] These lead compounds were synthesized from commercial precursors and purified on silica gel column. Structures were confirmed by ^1H NMR and found to be >95% pure by HPLC.

## COc1cc2ccnc(Cc3cccc4ccccc34)c2cc1OC [SMV-32]
Seahorse
  activity in cellular OCR assay: approaching that of rotenone
Seahorse, OCR inhibition at 10 μM concentration, normalized to PPV
  Inhibitory activity OCR % of PPV: 159.3 % of PPV
Compared to PPV
  complex 1 activity compared to PPV: 160%
